Laboratory results published in the NIST ThermoML archive (doi:10.1016/j.fluid.2005.08.001).

Experiments:
[1] = 298.15 K; 101.33 kPa; Liquid
[2] = excess molar enthalpy (molar enthalpy of mixing); xn = mol fraction of the nth substance listed; conditions: 298.15 K, 101.33 kPa, Liquid, Flow calorimetry

CCCCO [butan-1-ol]
Conditions	mass density [kg/m3]
[1]	805.74

CCO [ethanol]
Conditions	mass density [kg/m3]
[1]	785.07

CCCCCC [hexane]
Conditions	mass density [kg/m3]
[1]	654.9

CCCCCC [hexane] + CCCCO
[2]
Conditions	excess molar enthalpy [kcal/mol]
x2 = 0.0199	0.0527
x2 = 0.0399	0.0685
x2 = 0.05	0.0738
x2 = 0.06	0.0783
x2 = 0.0799	0.087
x2 = 0.0999	0.0943
x2 = 0.1499	0.11
x2 = 0.2	0.123
x2 = 0.25	0.129
x2 = 0.2999	0.133
x2 = 0.35	0.134
x2 = 0.4001	0.131
x2 = 0.4501	0.126
x2 = 0.5	0.12
x2 = 0.55	0.112
x2 = 0.6001	0.102
x2 = 0.6501	0.0909
x2 = 0.7	0.0788
x2 = 0.7501	0.0665
x2 = 0.7999	0.0535
x2 = 0.85	0.0399
x2 = 0.8999	0.0261
x2 = 0.95	0.011

CCCCCC [hexane] + CCO
[2]
Conditions	excess molar enthalpy [kcal/mol]
x2 = 0.0544	0.0669
x2 = 0.1056	0.0992
x2 = 0.1538	0.115
x2 = 0.1994	0.126
x2 = 0.2426	0.132
x2 = 0.2835	0.136
x2 = 0.3592	0.139
x2 = 0.4277	0.136
x2 = 0.4596	0.134
x2 = 0.49	0.135
x2 = 0.5191	0.133
x2 = 0.5992	0.122
x2 = 0.6472	0.116
x2 = 0.7125	0.106
x2 = 0.8064	0.0848
x2 = 0.8997	0.0535
x2 = 0.9528	0.0291

CCN(CC)CC [triethylamine]
Conditions	mass density [kg/m3]
[1]	722.56

CCN(CC)CC [triethylamine] + CCCCCC
[2]
Conditions	excess molar enthalpy [kcal/mol]
x1 = 0.025	0.00134
x1 = 0.05	0.00368
x1 = 0.075	0.00468
x1 = 0.1	0.007
x1 = 0.15	0.0104
x1 = 0.2	0.013
x1 = 0.25	0.0152
x1 = 0.3	0.0168
x1 = 0.35	0.0182
x1 = 0.4	0.019
x1 = 0.45	0.0193
x1 = 0.5	0.0196
x1 = 0.6	0.019
x1 = 0.65	0.0173
x1 = 0.7	0.0162
x1 = 0.75	0.0139
x1 = 0.8	0.0122
x1 = 0.85	0.00927
x1 = 0.9	0.00667
x1 = 0.95	0.00323

CCN(CC)CC [triethylamine] + CCCCO
[2]
Conditions	excess molar enthalpy [kcal/mol]
x2 = 0.0501	-0.0212
x2 = 0.1	-0.0787
x2 = 0.1502	-0.13
x2 = 0.1999	-0.156
x2 = 0.2536	-0.196
x2 = 0.3001	-0.228
x2 = 0.3499	-0.266
x2 = 0.3999	-0.282
x2 = 0.4499	-0.304
x2 = 0.5	-0.322
x2 = 0.5499	-0.331
x2 = 0.5999	-0.336
x2 = 0.6499	-0.33
x2 = 0.7001	-0.315
x2 = 0.7501	-0.292
x2 = 0.7999	-0.259
x2 = 0.85	-0.219
x2 = 0.8999	-0.166
x2 = 0.9499	-0.0879
x2 = 0.9792	-0.0411

CCN(CC)CC [triethylamine] + CCO
[2]
Conditions	excess molar enthalpy [kcal/mol]
x2 = 0.1116	-0.0893
x2 = 0.1621	-0.134
x2 = 0.2096	-0.163
x2 = 0.2542	-0.197
x2 = 0.2963	-0.225
x2 = 0.3361	-0.243
x2 = 0.4093	-0.285
x2 = 0.5056	-0.319
x2 = 0.5623	-0.329
x2 = 0.614	-0.33
x2 = 0.7047	-0.313
x2 = 0.7991	-0.262
x2 = 0.8477	-0.219
x2 = 0.8774	-0.187
x2 = 0.9052	-0.153
x2 = 0.9311	-0.116
x2 = 0.9555	-0.0767
